How the values were obtained:
[1] = system: Colo-205 (colorectal cancer) xenograft model; experiment: Example 3 in vivo efficacy of olaparib as single agent, Colo-205 xenograft
Experimental: (§1) An in vivo efficacy study was conducted with olaparib alone as a single agent. Olaparib was given as a single agent at different doses in a Colo-205 (colorectal cancer) xenograft model and in an A549 (NSCLC) xenograft model. Groups of animals (n=5) were dosed with olaparib (i.p.) 5 days on, 2 days off using 10-100 mg/kg doses.

[2] = system: A549 (NSCLC) xenograft model; experiment: Example 3 in vivo efficacy of olaparib as single agent, A549 xenograft
Experimental: as §1

y-H2AX foci = experiment: Example 3 immunohistochemical analysis of y-H2AX foci; type: in vivo; conditions: after olaparib treatment; Colo-205 and A549 xenograft study
Experimental: as §1

[3] = system: Colo-205 (colorectal cancer) xenograft model; experiment: Example 4 in vivo synergy study, olaparib dosing schedule 1, Colo-205 xenograft; conditions: [225Ac]-FPI-1434 50 nCi, olaparib 50 mg/kg i.p. 5 days on, 2 days off for 28 days, pre-dosed 3 times prior to FPI-1434, up to 28 days
Experimental: (§2) Combination groups (n=5) were dosed with olaparib (i.p.) 5 days on, 2 days off, using a 50 mg/kg dose for 28 days. Animals were pre-dosed with olaparib 3 times prior to the [^225Ac]-FPI-1434 administration.
(§3) Relative tumor volume was evaluated up to 28 days after administration.

[4] = system: A549 (NSCLC) xenograft model; experiment: Example 4 in vivo synergy study, olaparib dosing schedule 1, A549 xenograft; conditions: [225Ac]-FPI-1434 200 nCi, olaparib 50 mg/kg i.p. 5 days on, 2 days off for 28 days, pre-dosed 3 times prior to FPI-1434, up to 28 days
Experimental: as §2

[5] = system: Colo-205 (colorectal cancer) xenograft model; experiment: Example 5 in vivo synergy study, olaparib dosing schedule 2, Colo-205 xenograft; conditions: FPI-1434 50 nCi, olaparib 50 mg/kg i.p. 5 days on, 2 days off for 28 days, first dose 24 hours after FPI-1434, up to 28 days
Experimental: Combination groups (n=5) were dosed with olaparib (i.p.) 5 days on, 2 days off, using a 50 mg/kg dose for 28 days. The first dose of olaparib was administered 24 hours following FPI-1434 administration.
as §3

[6] = system: Colo-205 (colorectal cancer) xenograft model; experiment: Example 6 in vivo combination study at multiple dose levels, Colo-205 xenograft; conditions: lower effective doses: [225Ac]-FPI-1434 20 nCi, olaparib 25 mg/kg i.p. 5 days on, 2 days off from 24 hours after FPI-1434 until day 30
Experimental: An in vivo study was conducted with [^225Ac]-FPI-1434 and olaparib in a Colo-205 (colorectal cancer) xenograft model, with [^225Ac]-FPI-1434 administered at a dose of 20 nCi, 50 nCi, or 100 nCi. In combination groups (n=5), animals were dosed with olaparib (i.p.) starting at 24 hours after [^225Ac]-FPI-1434 administration according to a 5 days on, 2 days off schedule using 25 or 50 mg/kg doses until day 30 after [^225Ac]-FPI-1434 administration (“day 0”).
Relative tumor volume was evaluated at various time points after administration. […] FIG. 13A-13C show results using 20 nCi (FIG. 13A), 50 nCi (FIG. 13B), or 100 nCi (FIG. 13C) [^225Ac]-FPI-1434 with olaparib (25 mg/kg or 50 mg/kg).

[7] = olaparib i.p. 5 days on, 2 days off, 10-100 mg/kg

SMILES: O=C(c1cc(Cc2n[nH]c(=O)c3ccccc23)ccc1F)N1CCN(C(=O)C2CC2)CC1 [olaparib]
- Dose response of tumor volume effect ([1]; olaparib 10-100 mg/kg doses): did not appear to be a dose response
- Relative tumor volume (efficacy as a single agent) [1, 7]: modest efficacy as a single agent
- Dose response of tumor volume effect ([2]; olaparib 10-100 mg/kg doses): did not appear to be a dose response
- Relative tumor volume (efficacy as a single agent) [2, 7]: modest efficacy as a single agent
- DSB formation (y-H2AX foci, immunohistochemical analysis) (y-H2AX foci): no increase in DSB formation
- Relative tumor volume [3]: some reduction in tumor volume over time
- Relative tumor volume [4]: no apparent difference in tumor volume over time
- Relative tumor volume [5]: significant reduction in tumor volume overtime
- Relative tumor volume [6]: no or limited therapeutic effect
